Data reported in patent US20230348437A1, “COMPOUNDS, COMPOSITIONS AND METHODS” (Denali Therapeutics Inc., priority 2020, published 2023).
Where two headings read alike, the source gives them in different places.

Experiments:
[1] = tested on: NLRP3 (IL-1β release from THP-1 cells); test: IL-1β detection in IFN-γ differentiated THP-1 cells, LPS induction and ATP, 96 well format; assay type: cell-based; details: Homo sapiens, IFN-γ 25 ng/mL, LPS 50 ng/mL, ATP 5 mM, IL-1β ELISA, read-out: Activity (IC50 class)
Method: (§1) Compounds as provided herein were tested in the following assay. Cell culture medium employed contained RPMI 1640 medium (89%), FBS (10%), Pen/Strep (1%), and 2-mercaptoethanol (0.05 mM). Freezing medium was made up of 90% FBS and 10% DMSO. THP-1 cells were removed from the liquid nitrogen and placed into a 37° C. water bath to thaw, until signs of ice dissipated. The cells were then added to 9 mL of warm cell culture medium and centrifuged for 5 minutes at 1000 rpm. The supernatant was discarded, and the cells were resuspended in new cell culture medium. The THP-1 cells were then split and cultured in the cell culture medium, being passaged every 2-3 days (5×10^5 cells/mL passaged every two days, 3×10^5 cells/mL passaged every three days). Cell density was maintained between 5×10^5-1.5×10^6 viable cells/mL.
To freeze, cells were resuspended with fresh freezing medium, adjusting the cell density to between 3×10^6-10×10^6 cells/mL. The cell suspension was partitioned into 1 mL aliquots per vial, and the vials were transferred to a -80° C. freezer. After one day at -80° C., the cell vials were transferred to liquid nitrogen freezer for storage.
PBST solution was prepared by mixing 3600 mL of water, 400 mL of 10X PBS, and 4 mL of Tween 20. IFN-γ solution was reconstituted with 100 µL of water to obtain a 1 mg/mL solution, which was then diluted with 0.1 % BSA to provide a 100 ng/mL solution. The IFN-γ solution was stored at -20° C. LPS was reconstituted with 1 mL of PBS solution to obtain a 1 mg/mL stock solution, which was further diluted to 50 ng/mL with serum-free medium. The LPS solution was stored at 4° C.
The 96 well plates were then incubated at 37° C. under a humidified atmosphere of 5% CO2 for 24 h.
LPS induction: When IFN-γ treatment was completed, the supernatants were discarded by hand. 100 µL of a 1X solution of LPS in serum-free medium (50 ng/mL) was added. The plates were incubated in a 37° C. incubator under a humidified atmosphere of 5% CO2 for 4 h. Sample compounds were dissolved in DMSO and the compound solutions were dispensed to the wells using a Tecan D300e digital dispenser. The final concentration of DMSO for each well was 0.5%. The plates were then incubated at 37° C. under a humidified atmosphere of 5% CO2 for 1 h. 20 µL of a 6X solution of ATP was added (final concentration per well: 5 mM), and the plates incubated at 37° C. under a humidified atmosphere of 5% CO2 for 1 h. The supernatants were then collected and analyzed using an IL-Iβ detection kit. If needed, the test samples could be stored at -20° C. until analyzed.
Compound dilution: Compound solution source plates (20 µL of a 10 mM solution of each compound was delivered to the specified wells and stored in a nitrogen cabinet until tested.
Coat Elisa plate: The captured antibody (mAb Mt175) was diluted in PBS to a concentration of 2 µg/mL, and then used to coat the ELISA plate (SIGMA-P6366) overnight at 4° C.
The antibody coat was discarded and the plate was washed 4 times with PBST. The plate was blocked by adding 25 µL/well of blocking buffer (LiCor-927-40000) with 0.1% Tween 20, then incubated for 1 h at room temperature. The blocking buffer was then discarded and the plate was washed 4 times with PBST.
One hour before test sample addition, the sample plates were allowed to thaw at room temperature, centrifuged at 1000 rpm for 1 minute, and shaken for 30 seconds. 25 µL/well of the test samples were transferred to the ELISA plate, and the plate was incubated for 2 h at room temperature.
The test samples were discarded and the ELISA plate was washed 4 times with PBST. 15 µL/well of mAb7P10-biotin at 0.5 µg/mL (1:1000) in blocking buffer was then added to the ELISA plate and it was incubated for 1 h at room temperature.
The antibody was discarded and the ELISA plate was washed 4 times with PBST. Then 15 µL/well of streptavidin-HRP diluted 1:1000 in blocking buffer was added to the ELISA plate and it was allowed to incubate for 1 h at room temperature.

[2] = tested on: NLRP3 (IL-1β secretion from THP-1 cells); test: IL-1β secretion assay in 384-well plates, PMA differentiated THP-1 cells, LPS and nigericin stimulation; assay type: cell-based; details: Homo sapiens
Method: as §1, with “Cell culture medium employed contained RPMI 1640 medium (89%), FBS (10%), Pen/Strep (1%), and 2-mercaptoethanol (0.05 mM).” left out
PMA was dissolved in DMSO to make a stock solution at 5 mg/mL and stored in 10 µl aliquots at -20° C. for single use. PMA is added to normal growth medium. LPS was diluted with 1 mL of water solution to provide a 1 mg/mL stock solution and stored in 15 µl aliquots at -20° C. for single use. Nigericin is diluted in ice cold 100% ethanol to 5 mg/mL (6.7 mM) and stored in 75 µL aliquots at -20° C. for single use. […] The two control conditions used to qualify and normalize test compound dose-response curves were as follows: High Control = 25 ng/mL LPS, 5 µM Nigericin, 0.5% DMSO, Low Control = 25 ng/mL, LPS, 0.5% DMSO.
THP-1 cells were diluted to provide a suspension at a concentration of 1.0×10^6 cells/mL with the total volume of suspension required to enable the desired number of assay plates. The growth media was supplemented with PMA (5 ng/mL final concentration) and the cells were incubated at 37° C. under a humidified atmosphere of 5% CO2 for 40 h.
All media was carefully aspirated from each culture flask. The cells were washed carefully with 1x DPBS. The cells were then briefly digested with trypsin LE for 5 minutes at 23° C. and immediately resuspended in cell growth media. After resuspension, the cells were centrifuged at 1000 rpm for 3 minutes and the supernatant was discarded. The cells were resuspended in DPBS and once again centrifuged at 1000 rpm for 5 minutes. The supernatant was discarded and the cell pellet was resuspended in serum-free media supplemented with LPS (25 ng/mL final concentration) to enable the distribution of 30 K THP-1 cells within 45 µL of media into each well of 384-well PDL-coated plates. The 384-well plates were then incubated at 37° C. under a humidified atmosphere of 5% CO2 for 2 h. Following this period, test compounds were dispensed by Tecan across the desired concentration range with all wells normalized to a final 0.5 % DMSO concentration. The plates were then incubated at 37° C. under a humidified atmosphere of 5% CO2 for 1 h. Following this period, 5 µL of the […] nigericin stock solution was added to each of the appropriate wells and plates were centrifuged at 1000 rpm for 30 seconds. The plates were the immediately reintroduced to the incubator at 37° C. under a humidified atmosphere of 5% CO2 for 2 h. After this time, 35 µL/well of supernatant was collected and transferred into v-bottom plate and centrifuged at 1000 rpm for 1 minute. These supernatant aliquots were analyzed using an IL-Iβ detection kit as described below. If needed, the test samples could be snap frozen and stored at -80° C. until analyzed.
To prepare each ELISA plate, capture antibody (mAb Mt175) was diluted with PBS to a final concentration of 2 µg/mL and then 20 µL of this solution was added to each well of the ELISA plate. Each plate was allowed to incubate overnight at 4° C. The next day, the capture antibody solution was removed and discarded. […] Each ELISA plate was then allowed to incubate for 1 hour at 23° C. After this time, the blocking buffer was removed and discarded. Each ELISA plate was washed 4 times with PBST. During this time, the v-bottomed plates containing the supernatant aliquots from the assay run were centrifuged at 300 g for 5 minutes before transferring 15 µL/well of the supernatant sample to each ELISA plate. […]

[3] = THP-1 cells, PMA 5 ng/mL, LPS 25 ng/mL, nigericin, IL-1β ELISA, 384-well, read-out: Activity

Compound: CC(C)c1nn(CC(=O)N[C@H]2C[C@@](C)(O)C2)c(=O)cc1-c1ccccc1 [Example 1, N-(cis-3-hydroxy-3-methylcyclobutyl)-2-(3-isopropyl-6-oxo-4-phenylpyridazin-1(6H)-yl)acetamide]
- IC50 [1]: < 10 µM
- IC50 [2, 3]: 3.32 µM

Compound: CC(C)c1nn(CC(=O)N[C@H]2C[C@@](C)(O)C2)c(=O)cc1-c1cccc(Cl)c1 [Example 2, 2-(4-(3-chlorophenyl)-3-isopropyl-6-oxopyridazin-1(6H)-yl)-N-(cis-3-hydroxy-3-methylcyclobutyl)acetamide]
- IC50 [1]: < 10 µM
- IC50 [2, 3]: 1.49 µM

Compound: CCc1nn(CC(=O)N[C@H]2C[C@@](C)(O)C2)c(=O)cc1-c1ccccc1 [Example 3, 2-(3-Ethyl-6-oxo-4-phenylpyridazin-1(6H)-yl)-N-(cis-3-hydroxy-3-methylcyclobutyl)acetamide]
- IC50 [1]: < 10 µM
- IC50 [2, 3]: 6.77 µM

Compound: CC(C)c1nn(CC(=O)N[C@H]2C[C@@](C)(O)C2)c(=O)cc1-c1ccccc1Cl [Example 4, 2-(4-(2-Chlorophenyl)-3-isopropyl-6-oxopyridazin-1(6H)-yl)-N-(cis-3-hydroxy-3-methylcyclobutyl)acetamide]
- IC50 [1]: < 10 µM
- IC50 [2, 3]: 5.91 µM

Compound: CC(C)c1nn(CC(=O)Nc2ncncc2F)c(=O)cc1-c1cccc(Cl)c1 [Example 6, 2-(4-(3-chlorophenyl)-3-isopropyl-6-oxopyridazin-1(6H)-yl)-N-(5-fluoropyrimidin-4-yl)acetamide]
- IC50 [1]: < 10 µM
- IC50 [2, 3]: 0.535 µM

Compound: COc1cccc(-c2cc(=O)n(CC(=O)N[C@H]3C[C@@](C)(O)C3)nc2C(C)C)c1 [Example 7]
- IC50 [1]: < 10 µM
- IC50 [2, 3]: 7.06 µM

Compound: CC(C)c1nn(CC(=O)N[C@H]2C[C@@](C)(O)C2)c(=O)cc1-c1cccc(C#N)c1 [Example 8, 2-(4-(3-cyanophenyl)-3-isopropyl-6-oxopyridazin-1(6H)-yl)-N-(cis-3-hydroxy-3-methylcyclobutyl)acetamide]
- IC50 [1]: 10 to 15 µM
- IC50 [2, 3]: 24.5 µM

Compound: Cc1cccc(-c2cc(=O)n(CC(=O)N[C@H]3C[C@@](C)(O)C3)nc2C(C)C)c1 [Example 9, N-(cis-3-hydroxy-3-methylcyclobutyl)-2-(3-isopropyl-6-oxo-4-(m-tolyl)pyridazin-1(6H)-yl)acetamide]
- IC50 [1]: < 10 µM
- IC50 [2, 3]: 2.27 µM

Compound: CC(C)c1nn(CC(=O)N[C@H]2C[C@@](C)(O)C2)c(=O)cc1-c1ccc(F)cc1 [Example 10, 2-(4-(4-fluorophenyl)-3-isopropyl-6-oxopyridazin-1(6H)-yl)-N-(cis-3-hydroxy-3-methylcyclobutyl)acetamide]
- IC50 [1]: 10 to 15 µM
- IC50 [2, 3]: 50 µM

Compound: CC(C)c1nn(CC(=O)N[C@H]2C[C@@](C)(O)C2)c(=O)cc1-c1ccccc1F [Example 11, 2-(4-(2-fluorophenyl)-3-isopropyl-6-oxopyridazin-1(6H)-yl)-N-(cis-3-hydroxy-3-methylcyclobutyl)acetamide]
- IC50 [1]: < 10 µM
- IC50 [2, 3]: 2.88 µM

Compound: O=C(Cn1nc(C(F)F)c(-c2cc(F)cc(F)c2)cc1=O)Nc1ncc(F)cn1 [Example 53, 2-[3-(difluoromethyl)-4-(3,5-difluorophenyl)-6-oxopyridazin-1-yl]-N-(5-fluoropyrimidin-2-yl)acetamide]
- IC50 [2, 3]: 2.77 µM

Compound: CC(C)c1nn(CC(=O)Nc2ncc(F)cn2)c(=O)cc1-c1cncc(F)c1 [Example 54, 2-[4-(5-fluoropyridin-3-yl)-6-oxo-3-propan-2-ylpyridazin-1-yl]-N-(5-fluoropyrimidin-2-yl)acetamide]
- IC50 [2, 3]: 6.98 µM

Compound: CC(CF)c1nn(CC(=O)Nc2ncc(F)cn2)c(=O)cc1-c1cc(F)cc(F)c1 (stereo not shown) [Example 55, 2-[4-(3,5-difluorophenyl)-3-(1-fluoropropan-2-yl)-6-oxopyridazin-1-yl]-N-(5-fluoropyrimidin-2-yl)acetamide]
- IC50 [2, 3]: 1.06 µM

Compound: O=C(Cn1nc(C2CCC2)c(-c2cc(F)cc(F)c2)cc1=O)Nc1ncc(F)cn1 [Example 56, 2-[3-cyclobutyl-4-(3,5-difluorophenyl)-6-oxopyridazin-1-yl]-N-(5-fluoropyrimidin-2-yl)acetamide]
- IC50 [2, 3]: 0.713 µM

Compound: COc1nn(CC(=O)Nc2ncc(F)cn2)c(=O)cc1-c1cc(F)cc(F)c1 [Example 57, 2-[4-(3,5-difluorophenyl)-3-methoxy-6-oxopyridazin-1-yl]-N-(5-fluoropyrimidin-2-yl)acetamide]
- IC50 ([2]; THP-1, read-out: Activity (µM)): 1.96 µM
